In patent US8609719B2, “Propargylated aminoindans, processes for preparation, and uses thereof” (priority 2006, dated 2013):
Where a name gives a salt, the structure may show the parent alone.

How the values were obtained:
[1] = target: T1, MAO-B (Rattus norvegicus, UniProt P19643); test: Inhibition of MAO activity in vitro (PEA substrate); format: biochemical
T1 construct: from tissue; host or cells: brain, liver and intestine (duodenum) of dosed rats
T1 sequence (P19643 1-520): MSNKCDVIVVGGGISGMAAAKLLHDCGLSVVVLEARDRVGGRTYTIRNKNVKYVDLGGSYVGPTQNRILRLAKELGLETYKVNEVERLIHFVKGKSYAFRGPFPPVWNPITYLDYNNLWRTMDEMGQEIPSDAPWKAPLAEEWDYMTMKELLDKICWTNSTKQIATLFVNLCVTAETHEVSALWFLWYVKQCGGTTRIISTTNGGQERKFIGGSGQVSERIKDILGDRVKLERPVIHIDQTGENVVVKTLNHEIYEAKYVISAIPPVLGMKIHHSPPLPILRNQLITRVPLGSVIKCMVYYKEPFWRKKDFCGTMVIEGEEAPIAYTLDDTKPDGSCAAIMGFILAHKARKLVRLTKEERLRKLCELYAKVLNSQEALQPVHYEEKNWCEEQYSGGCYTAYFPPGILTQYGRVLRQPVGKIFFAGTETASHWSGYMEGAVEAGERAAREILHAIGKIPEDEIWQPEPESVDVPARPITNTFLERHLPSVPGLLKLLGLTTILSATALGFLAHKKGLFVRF
Description: The MAO enzyme source was a homogenate of rat brain in 0.3M sucrose. The homogenate was diluted appropriately, and pre-incubated with serial dilutions of test compounds—diluted in phosphate buffer containing clogyline when 2-phenylethylamine (PEA) is the substrate, and diluted in phosphate buffer containing selegiline when 5-hydroxytryptamine (5-HT) is the substrate—for 60 minutes at 37° C. 14C-Labeled substrates (PEA for MAO-B determination and 5-HT for MAO-A determination) were then added, and the incubation continued for a further 20 minutes (PEA) or 30 minutes (5-HT). Substrate concentrations used were 10 μM (PEA) and 100 uM (5-HT). Enzyme concentration was chosen so that not more than 10% of the substrate was metabolized during the course of the reaction. Deaminated products were extracted into toluene-ethyl acetate (1:1 v/v) containing 0.4% (w/v) 2,5-diphenyloxazole (ppo) prior to determination by liquid scintillation counting. Radioactivity in the eluate indicated the production of neutral and acidic metabolites formed as a result of MAO activity. Activity of MAO in the sample was expressed as a percentage of control activity in the absence of inhibitor after subtraction of appropriate blank values. The activity determined using PEA as substrate is referred to as MAO-B, and that determined using 5-HT as MAO-A.
Concentrations of each inhibitor producing 50% inhibition of substrate metabolism (IC50) were calculated from the inhibition curves, and are shown in Table 1.

[2] = Pharmacokinetic analysis of ladostigil and metabolites in Alzheimer's disease patients; conditions: human, in vivo, 100 mg; for Cmax / AUC / AUC(0-t): after ladostigil tartrate 100 mg twice daily; for concentration at 12 h: mean concentration at pre-dose, 12 hours after the previous dose of ladostigil tartrate; for AUC: AUC (M)
[3] = both, Cmax (M), mean, mean of patients, maintenance analysis Week 4
[4] = both, Cmax (T), mean, mean of patients, termination analysis Week 9
[5] = both, Cmin (M), mean of patients, maintenance analysis Week 4
[6] = both, Cmin (T), mean of patients, termination analysis Week 9
[7] = Patient 1, maintenance analysis Week 4
[8] = Patient 2, maintenance analysis Week 4
[9] = Patient 3, maintenance analysis Week 4
[10] = Patient 4, maintenance analysis Week 4
[11] = Patient 5, maintenance analysis Week 4
[12] = Patient 6, maintenance analysis Week 4
[13] = Patient 7, maintenance analysis Week 4
[14] = Patient 8, maintenance analysis Week 4
[15] = Patient 1, termination analysis Week 9
[16] = Patient 2, termination analysis Week 9
[17] = Patient 3, termination analysis Week 9
[18] = Patient 4, termination analysis Week 9
[19] = Patient 5, termination analysis Week 9
[20] = Patient 6, termination analysis Week 9
[21] = Patient 7, termination analysis Week 9
[22] = Patient 8, termination analysis Week 9
[23] = Cmax (M), Patient 1, maintenance analysis Week 4
[24] = Cmax (M), Patient 2, maintenance analysis Week 4
[25] = Cmax (M), Patient 3, maintenance analysis Week 4
[26] = Cmax (M), Patient 4, maintenance analysis Week 4
[27] = Cmax (M), Patient 5, maintenance analysis Week 4
[28] = Cmax (M), Patient 6, maintenance analysis Week 4
[29] = Cmax (M), Patient 7, maintenance analysis Week 4
[30] = Cmax (M), Patient 8, maintenance analysis Week 4
[31] = Cmax (T), Patient 1, termination analysis Week 9
[32] = Cmax (T), Patient 2, termination analysis Week 9
[33] = Cmax (T), Patient 3, termination analysis Week 9
[34] = Cmax (T), Patient 4, termination analysis Week 9
[35] = Cmax (T), Patient 5, termination analysis Week 9
[36] = Cmax (T), Patient 6, termination analysis Week 9
[37] = Cmax (T), Patient 7, termination analysis Week 9
[38] = Cmax (T), Patient 8, termination analysis Week 9

Compound	IC50 [1]	half-life ([2]; both)	Cmax [2, 3]	Cmax [2, 4]	concentration at 12 h [2, 5]	concentration at 12 h [2, 6]	AUC [2, 7]	AUC [2, 8]	AUC [2, 9]	AUC [2, 10]	AUC [2, 11]	AUC [2, 12]	AUC [2, 13]	AUC [2, 14]	AUC(0-t) [2, 15]	AUC(0-t) [2, 16]	AUC(0-t) [2, 17]	AUC(0-t) [2, 18]	AUC(0-t) [2, 19]	AUC(0-t) [2, 20]	further results
CNC(=O)Oc1ccc2c(c1)[C@H](N)CC2 [R-MCAI, Methyl-carbamic acid 3-R-amino-indan-5-yl ester hydrochloride]	> 1000 µM	8.09 h	2.7e-07 M	2.61e-07 M	1.53e-07 M	1.39e-07 M	62 ng·h/mL	121 ng·h/mL	172 ng·h/mL	191 ng·h/mL	171 ng·h/mL	144 ng·h/mL	213 ng·h/mL	86 ng·h/mL	570 ng·h/mL	733 ng·h/mL	958 ng·h/mL	672 ng·h/mL	895 ng·h/mL	964 ng·h/mL	AUC(0-t) [2, 21]: 186 ng·h/mL; AUC(0-t) [2, 22]: 426 ng·h/mL; Cmax [2, 23]: 1e-07 M; Cmax [2, 24]: 2e-07 M; Cmax [2, 25]: 3e-07 M; Cmax [2, 26]: 3e-07 M; Cmax [2, 27]: 3e-07 M; Cmax [2, 28]: 3e-07 M; Cmax [2, 29]: 4e-07 M; Cmax [2, 30]: 2e-07 M; Cmax [2, 31]: 2e-07 M; Cmax [2, 32]: 2e-07 M; Cmax [2, 33]: 3e-07 M; Cmax [2, 34]: 2e-07 M; Cmax [2, 35]: 4e-07 M; Cmax [2, 36]: 3e-07 M; Cmax [2, 37]: 2e-07 M; Cmax [2, 38]: 2e-07 M
C#CCN[C@@H]1CCc2ccc(OC(=O)NC)cc21 [R-MCPAI, Methyl-carbamic acid 3-R-(prop-2-ynylamino)-indan-5-yl ester hydrochloride]	42 µM	1.39 h	1.29e-06 M	1.07e-06 M	1.74e-08 M	1.32e-08 M	684 ng·h/mL	103 ng·h/mL	596 ng·h/mL	764 ng·h/mL	491 ng·h/mL	630 ng·h/mL	212 ng·h/mL	304 ng·h/mL	493 ng·h/mL	789 ng·h/mL	621 ng·h/mL	487 ng·h/mL	551 ng·h/mL	947 ng·h/mL	AUC(0-t) [2, 21]: 584 ng·h/mL; AUC(0-t) [2, 22]: 343 ng·h/mL; Cmax [2, 23]: 1.8e-06 M; Cmax [2, 24]: 3e-07 M; Cmax [2, 25]: 1.2e-06 M; Cmax [2, 26]: 3e-06 M; Cmax [2, 27]: 1.5e-06 M; Cmax [2, 28]: 1.3e-06 M; Cmax [2, 29]: 5e-07 M; Cmax [2, 30]: 7e-07 M; Cmax [2, 31]: 1.3e-06 M; Cmax [2, 32]: 1e-06 M; Cmax [2, 33]: 1e-06 M; Cmax [2, 34]: 1.1e-06 M; Cmax [2, 35]: 1.3e-06 M; Cmax [2, 36]: 1.3e-06 M; Cmax [2, 37]: 1e-06 M; Cmax [2, 38]: 6e-07 M
